In patent US20110306762A1, “ACID ADDITION SALT OF UDENAFIL, PREPARATION METHOD THEREOF AND PHARMACEUTICAL COMPOSITION COMPRISING THE SAME” (priority 2009, published 2011):

Legend:
[1] = Hygroscopicity test of acid addition salts of Udenafil; type: physicochemical; details: exposed for 2 hours, room temperature, relative humidity 43%
[2] = Crystallinity test of acid addition salts of Udenafil; type: physicochemical; design: key: ◯: Formation of crystal; X: No formation of crystal; details: for Crystallinity test 1-2: crystallization: whether crystallization occurs after dissolving the salt in a suitable solvent; for Crystallinity test 1-1: detecting whether the crystal is formed in the reaction solution
Experimental: The acid addition salts of Udenafil obtained in Examples 1 to 6 and Comparative Examples were tested for crystallinity and hygroscopicity as follows.
1) detecting whether the crystal is formed in the reaction solution, and
2) crystallization: detecting whether crystallization occurs after dissolving acid addition salt of Udenafil in a suitable solvent.

[3] = Solubility test in distilled water by HPLC; type: physicochemical
Source text: To test the solubility of the acid addition salts of Udenafil in distilled water, the following experiments were preformed.
The analysis conditions for HPLC were as follows:
Detector: ultraviolet ray absorbance measured at wavelength 292 nm
Column: octadecyl silica gel C18 (4.6×150 mm, 5 μm)
Mobile phase: an aqueous solution of potassium dihydrogenphosphate (0.02M):acetonitrile=70:30

PDE-5 = PDE-5 (Homo sapiens, UniProt O76074); details: compared with the conventional compounds; cited from earlier work
[4] = in vivo; cited from earlier work

Row | Molecule | Crystallinity test 1-2 [2] | Crystallinity test 1-1 [2] | further results
1 | CC1(C)C2CCC1(CS(=O)(=O)O)C(=O)C2.CCCOc1ccc(S(=O)(=O)NCCC2CCCN2C)cc1-c1nc2c(CCC)nn(C)c2c(=O)[nH]1 (centres unmarked) [Example 3, Camphorsulfonic Acid Addition Salt of Udenafil] | ◯ | ◯ | Hygroscopicity (weight change ratio, %) [1]: 0.7%; solubility in the distilled water [3]: remarkably excellent solubility; Average of measured peak area ([3]; HPLC, UV 292 nm): 7,142,473; First measured peak area ([3]; HPLC, UV 292 nm): 7,141,140; second measured peak area ([3]; HPLC, UV 292 nm): 7,127,027; third measured peak area ([3]; HPLC, UV 292 nm): 7,158,961
2 | CCCOc1ccc(S(=O)(=O)NCCC2CCCN2C)cc1-c1nc2c(CCC)nn(C)c2c(=O)[nH]1 (centres unmarked) [Udenafil, 5-[2-propyloxy-5-(1-methyl-2-pyrrolidinyleneamidosulfonyl)phenyl]-1-methyl-propyl-1,6-dihydro-7H-pyrazolo(4,3-d)pyrimidine-7-one] | – | – | selectivity to PDE-5 (PDE-5): notably higher selectivity; half-life [4]: 12 h; time to maximum peak plasma concentration [4]: 1 h; solubility in the distilled water [3]: hardly dissolved; detection in the distilled water ([3]; HPLC): not detected
3 | N[C@@H](CC(=O)O)C(=O)O [aspartic acid] | X | X | –
4 | O=C(O)CC(O)(CC(=O)O)C(=O)O [citric acid] | X | X | –
5 | O=CO [formic acid] | X | X | –
6 | O=C(O)/C=C/C(=O)O [fumaric acid] | X | X | –
7 | N[C@@H](CCC(=O)O)C(=O)O [glutamic acid] | X | X | –
8 | O=C(O)CCCC(=O)O [glutaric acid] | X | X | –
9 | O=C(O)CNC(=O)c1ccccc1 [hippuric acid] | X | X | –
10 | CC(O)C(=O)O (centres unmarked) [lactic acid] | X | X | –
11 | O=C(O)/C=C\C(=O)O [maleci acid] | X | X | –
12 | O=C(O)/C=C\C(=O)O [maleic acid] | X | X | –
13 | O=C(O)CC(=O)O [malonic acid] | X | X | –
14 | O=C(O)CCC(=O)O [succinic acid] | X | X | –
15 | O=C(O)C(O)C(O)C(=O)O (centres unmarked) [tartaric acid] | X | X | –
16 | Adipic Acid Addition Salt of Udenafil [Example 5] | ◯ | ◯ | –
17 | Benzenesulfonic Acid Addition Salt of Udenafil [Example 2] | ◯ | ◯ | –
18 | Cinnamic Acid Addition Salt of Udenafil [Example 4] | ◯ | ◯ | –
19 | Oxalic Acid Addition Salt of Udenafil [Example 1] | ◯ | ◯ | –
